Tests used:
COVID-19 = details: hospitalized COVID-19 patients; cited from earlier work
SARS-CoV-2 mimics = experiment: In vivo clearance of the SARS-CoV-2 mimicking virus by nanodecoys in mice; parameters: species or system CD1 mice; details: mouse

Row | Compound | effect on overall mortality, necessity for mechanical ventilation, and length of hospital stay (COVID-19) | amounts of SARS-CoV-2 mimics in lungs (ex vivo imaging) (SARS-CoV-2 mimics)
1 | CCN(CCO)CCCC(C)Nc1ccnc2cc(Cl)ccc12 (stereo not drawn) [hydroxychloroquine] | little or no effect | 
2 | lopinavir/ritonavir | little or no effect | 
3 | rACE2: free recombinant ACE2 protein, same amount of ACE2 as on the nanodecoys |  | ineffective
